# Measured values from patent US10244762B1, “Solid aquatic organism control composition and method of use” (priority 2016, dated 2019).
# System: Microcystis aeruginosa
# Experiment: M. aeruginosa cultures, peroxide held constant with Fe-EDTA and citric acid
# Format: cell-based
# Conditions: 1.75 ppm H2O2; for In vivo chl a concentrations (± SD) of M. aeruginosa cultures: initial 3.83 ± 0.05 μg/L
# Protocol: Tests were conducted similar to Example 1 to show the efficacy of compositions made according to the present disclosure against Microcystis aeruginosa. M. aeruginosa is a species of fresh water bacteria that can form harmful algal blooms.
# Peroxide concentrations were held constant at either 0.5 ppm, 1.5 ppm, 1.75 ppm, or 2.0 ppm. Fe-EDTA was applied at 0.3%, 0.6%, or 0.9% based on the original dry formulation. Citric acid was added at 1% based on the original dry formulation.
# For instance, Tables 5 and 6 below illustrate the differences when peroxide was applied at 1.75 ppm.
structure (smiles),measurement,setting,value
"OO [H2O2, hydrogen peroxide]",In vivo chl a concentrations (± SD) of M. aeruginosa cultures,day 1,2.87 ± 0.74 µg/L
same,In vivo chl a concentrations (± SD) of M. aeruginosa cultures,day 2,1.72 ± 0.66 µg/L
same,In vivo chl a concentrations (± SD) of M. aeruginosa cultures,day 3,1.31 ± 0.64 µg/L
same,In vivo chl a concentrations (± SD) of M. aeruginosa cultures,day 4,1.32 ± 0.63 µg/L
same,Cell density of M. aeruginosa cultures (± SD),"day 4, initial cell density 2.2E+06 ± 7.2E+04 cells/mL",8.0E+04 cells/mL
